Test [1] deals with p21-induced transcription from the NK4 promoter. Nature of the test: NK4 promoter-firefly luciferase reporter in HT1080 p21-9 cells. Type of test: cell-based, human. To be noted: 20 μM SNX-9. How it is done:
In this experiment, HT1080 p21-9 cells that express firefly luciferase from a CDKI-responsive promoter of cellular NK4 gene were cultured with IPTG for two days, which is sufficient for near-maximal induction of NK4 (Poole et al., supra).
In general terms: Reporter assays use an easily measured gene product as a stand-in for the process of interest.

For test [2], the target named is CDK2/cyclinA (h), CDK2/cyclinE (h). Nature of the test: Cyclin/CDK kinase assay (Upstate), CDK2/cyclinA and CDK2/cyclinE. Type of test: biochemical, human. The following applies: 100 μM, re-tested at 20 and 40 μM (SNX9, SNX2) or 10 and 20 μM (SNX9-1, SNX14). How it is done: (§1) To test the above hypothesis, we determined whether several CDKI pathway inhibitors, including two SNX9 class compounds (SNX9 and SNX9-1), two compounds of a different structural class (SNX14 and SNX2) and another unrelated inhibitor (SNX35), inhibit the kinase activity of different complexes formed in vitro by purified cyclin/CDK complexes. This analysis was carried out as a service by Upstate Biotechnology, Inc.
(§2) In a final reaction volume of 25 μl, CDK2/cyclinA (h) (5-10 mU) is incubated with 8 mM MOPS pH 7.0, 0.2 mM EDTA, 0.1 mg/ml histone H1, 10 mM MgAcetate and [γ-33P-ATP] (specific activity approx. 500 cpm/pmol, 45 μM concentration). The reaction is initiated by the addition of the MgATP mix. After incubation for 40 minutes at room temperature, the reaction is stopped by the addition of 5 μl of a 3% phosphoric acid solution. 10 μl of the reaction is then spotted onto a P30 filtermat and washed three times for 5 minutes in 75 mM phosphoric acid and once in methanol prior to drying and scintillation counting.
In a final reaction volume of 25 μl, CDK2/cyclinE (h) (5-10 mU) is incubated with 8 mM MOPS pH 7.0, 0.2 mM EDTA, 0.1 mg/ml histone H1, 10 mM MgAcetate and [γ-33P-ATP] (specific activity approx. 500 cpm/pmol, 120 μM concentration). The reaction is initiated by the addition of the MgATP mix. […]

The test system of the next test is HCT116 colon carcinoma. Nature of the test: 3-day growth inhibition assay (Hoechst 33342), HCT116. To be noted: Homo sapiens, HCT-116, 72 h, 3 days, read-out: growth inhibition (decrease in cell number relative to untreated cells). Type of test: cell-based.
Another test has as its system HT1080 fibrosarcoma. Kind of test: 3-day growth inhibition assay (Hoechst 33342), HT1080. Type of test: cell-based. The following applies: Homo sapiens, HT-1080, 72 h, 3 days, read-out: growth inhibition (decrease in cell number relative to untreated cells).
A further test has as its target T1, CDK3/cyclinE (h) (Homo sapiens, UniProt Q00526).
T1 construct: purchased Upstate Biotechnology, Inc
Kind of test: Cyclin/CDK kinase assay (Upstate), CDK3/cyclinE. Type of test: biochemical. The following applies: 100 μM, re-tested at 20 and 40 μM (SNX9, SNX2) or 10 and 20 μM (SNX9-1, SNX14). The method, then:
as §1
as §2, with “CDK3/cyclinE” for “CDK2/cyclinA”, “mg/ml” for “mg/ml histone”, “200” for “45”
At the first step, all the compounds were tested at 100 μM concentration. […] For SNX14 and SNX2, the relative efficacy of inhibition was CDK1>CDK2˜CDK3>CDK6. For SNX9 and SNX9-1, the order was CDK3>CDK1>CDK2>CDK6 (FIG. 12).

Test [3] deals with WI-38 and BJ-EN fibroblasts vs HT1080, HCT116, C33-A, Calu-6. Kind of test: 3-day growth inhibition assay (Hoechst 33342), normal fibroblasts vs tumor cell lines. The following applies: 3-day assay, WI-38, BJ-EN vs HT1080, HCT116, C33-A.
Method: (§3) The assays were carried out in 96-well plates, in triplicates; the plated cell numbers for each cell line were determined in preliminary experiments to assure exponential growth over the 3-day period of the assay. The cell numbers were measured by staining DNA of attached cells with Hoechst 33342, and the results for each dose were expressed as the decrease in cell number relative to untreated cells. For some of the tumor/normal cell line combinations, the assays were repeated using CellTiter-Glo viability assay (Promega), with the same results.
In test [4] the test system is NFκB p50 and p65 subunits. Nature of the test: TransAM NFκB p65 and p50 Chemi Transcription Factor Assay (oligonucleotide binding). Type of test: cell-based. To be noted: TNFα-induced or basal. An excerpt:
We also tested if these compounds could act as the inhibitors of NFκB, by measuring cellular levels of p50 or p65 subunits binding oligonucleotides containing NFκB consensus binding site, using ACTIVE MOTIF TransAM™ NFκB p65 Chemi and NFκB p50 Chemi Transcription Factor Assay Kits.

Test [5] relates to p21-responsive genes (IPTG-induced p21). Kind of test: Affymetrix U133 2.0 Plus microarray analysis of p21-responsive genes in HT1080 p21-9. Type of test: cell-based, human. The following applies: for fold induction at 20 µM: Homo sapiens, HT-1080, 72 h. How it is done:
HT1080 p21-9 cell line, which carries IPTG-inducible CDKI p21, was either untreated, or treated for 72 hrs with 100 μM IPTG (which induces p21), or with CDKI pathway inhibitors SNX9-1 (20 μM, SNX9 family) or SNX14 (80 μM, unrelated to SNX9) alone or in combination with IPTG. RNA was extracted after each treatment and used for hybridization with Affymetrix U133 2.0 Plus microarrays, containing 56,000 probe sets corresponding to essentially all the human genes. The microarray data were analyzed using Gene Spring software (Agilent). […] The first group (p21-induced genes, top panels) represents 1124 probe sets corresponding to genes that were induced at least 2-fold upon treatment with p21-inducing IPTG. The second group (p21-inhibited genes, bottom panels) represents 435 probe sets corresponding to genes that were inhibited at least 4-fold upon IPTG treatment. […] The left panels show the response of the two groups of genes to IPTG (p21 induction) in the absence of SNX9-class compounds, with the first group induced and the second group inhibited by IPTG. The middle panels show the response of the same genes to IPTG in the presence of SNX9-1 or SNX14 (added with or without IPTG). Both the induction and the inhibition of gene expression by IPTG appear much reduced in the presence of SNX9-1 or SNX14, as expected from their activity as CDKI pathway inhibitors.

Where [6] appears, read: SNX9-1 20 μM, SNX14 80 μM, 72 hrs.

Like-named read-outs stand apart in the source and are kept apart here.

T1 sequence (Q00526 whole entry): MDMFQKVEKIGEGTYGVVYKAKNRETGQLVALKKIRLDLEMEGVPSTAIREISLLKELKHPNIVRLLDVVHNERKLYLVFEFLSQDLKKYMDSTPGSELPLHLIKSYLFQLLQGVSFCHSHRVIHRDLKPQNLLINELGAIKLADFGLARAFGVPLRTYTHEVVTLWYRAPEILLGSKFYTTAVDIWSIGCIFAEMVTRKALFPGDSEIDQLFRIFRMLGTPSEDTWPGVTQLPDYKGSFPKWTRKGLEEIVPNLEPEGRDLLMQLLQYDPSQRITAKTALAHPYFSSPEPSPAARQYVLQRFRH
T1 sequence (P24864 whole entry partner): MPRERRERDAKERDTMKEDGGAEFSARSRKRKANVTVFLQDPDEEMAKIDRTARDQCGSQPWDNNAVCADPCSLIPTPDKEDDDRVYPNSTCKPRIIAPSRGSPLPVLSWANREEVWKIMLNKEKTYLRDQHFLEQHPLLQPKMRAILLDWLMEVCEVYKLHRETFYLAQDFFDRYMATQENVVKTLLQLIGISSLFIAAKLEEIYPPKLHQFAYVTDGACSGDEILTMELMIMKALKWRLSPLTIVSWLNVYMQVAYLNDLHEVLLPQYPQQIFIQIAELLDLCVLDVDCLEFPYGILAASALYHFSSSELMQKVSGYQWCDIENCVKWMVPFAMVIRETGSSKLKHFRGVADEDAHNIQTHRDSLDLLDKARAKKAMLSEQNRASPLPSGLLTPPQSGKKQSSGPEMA
Method for HCT116 colon carcinoma: as §3
Method for HT1080 fibrosarcoma: as §3

With `Cc1[nH]c2c(Cl)cccc2c1CCN` [SNX9], in test [1], the “induction of NK4-luciferase by p21, compound added after two days of IPTG treatment (reversal)” value is “reverses CDKI-induced transcription” and the “induction of NK4-luciferase by p21, compound added simultaneously with IPTG” value was “decreased the induction of NK4-luciferase by p21”. For the same compound, the “kinase activity of CDK2” value in test [2] was “inhibited the kinase activities”. Besides, in the test on HCT116 colon carcinoma, the inhibition (as a rule, the percentage by which the read-out fell short of the control) at 5 µM is about 100%. Further, the inhibition at 5 µM with HT1080 fibrosarcoma is about 100%. For the same compound, the “kinase activity of CDK3” value on CDK3/cyclinE (h) is on record as “inhibited the kinase activities”. Further, the “tumor selectivity of growth inhibition, tumor cells vs normal fibroblasts” value in test [3] is “inhibited all the tumor cells to a greater extent than normal fibroblasts”. In addition, in test [4], the “NFκB activity (p50 or p65 binding to NFκB consensus oligonucleotide)” value was “no significant effect”.
As to `NCCc1c[nH]c2c(Cl)cc(Cl)cc12` [SNX9-1], in test [2], the “kinase activity of CDK2” value is given as “inhibited the kinase activities”. The “kinase activity of CDK3” value on CDK3/cyclinE (h) is listed as “inhibited the kinase activities”. Moreover, the “tumor selectivity of growth inhibition, tumor cells vs normal fibroblasts” value in test [3] is recorded as “inhibited all the tumor cells to a greater extent than normal fibroblasts”. Moreover, the fold induction at 20 µM in test [5] (read-out: Fold induction by IPTG, CD44, probe 212063_at, SNX14 80 μM, SNX9-1 20 μM, control 1.21) is 1.03; in test [5] (read-out: Fold induction by IPTG, CLTB, probe 211043_s_at, SNX14 80 μM, SNX9-1 20 μM, control 1.32), 0.95; in test [5] (read-out: Fold induction by IPTG, FLJ13111, probe 218148_at, SNX14 80 μM, SNX9-1 20 μM, control 1.27), 0.98; in test [5] (read-out: Fold induction by IPTG, KRT8, probe 209008_x_at, SNX14 80 μM, SNX9-1 20 μM, control 1.97) it was 0.81; in test [5] (read-out: Fold induction by IPTG, LGALS3, probe 208949_s_at, SNX14 80 μM, SNX9-1 20 μM, control 3.74) it was 1.33; in test [5] (read-out: Fold induction by IPTG, NK4, probe 203828_s_at, SNX14 80 μM, SNX9-1 20 μM, control 7.22), 1.6. For the same compound, the fold induction at 20 µM in test [5] (read-out: Fold induction by IPTG, SLC22A18, probe 204981_at, SNX14 80 μM, SNX9-1 20 μM, control 2.46) amounted to 1.34; in test [5] (read-out: Fold induction by IPTG, SPTBN1, probe 212071_s_at, SNX14 80 μM, SNX9-1 20 μM, control 1.24), 1.24; in test [5] (read-out: Fold induction by IPTG, SPTBN1, probe 226765_at, SNX14 80 μM, SNX9-1 20 μM, control 1.21), 1.09. The “induction and inhibition of gene expression by IPTG in the presence of compound (1124 p21-induced, 435 p21-inhibited probe sets)” value in test [5] (setting [6]) is listed as “much reduced”. Moreover, the “induction by p21 of genes that are markers of cancer intractability” value in test [5] (setting [6]) is listed as “inhibited their induction”. Also, in test [5] (SNX9-1 20 μM, SNX14 80 μM, 72 hrs, weaker than IPTG), the “response of p21-induced and p21-inhibited genes to compound in the absence of IPTG” value was “most of p21-induced genes are induced by SNX9-1 and SNX14 and most of p21-inhibited genes are inhibited”.

The record behind these values is US20080200531A1, “CDKI pathway inhibitors as inhibitors of tumor cell growth” (priority 2006, published 2008).
